# Legend:
# Assay type in all cases: biochemical
# PCAF [1] = biological target: T1, PCAF (Homo sapiens, UniProt Q92831); assay: CPM fluorescent HAT assay with H3-20 and Ac-CoA
# Tip60 = Tip60 (Homo sapiens, UniProt Q92993); assay: CPM fluorescent HAT assay with H4-20 and Ac-CoA
# p300 = p300 (Homo sapiens, UniProt Q09472); assay: radioisotope […]Ac-CoA HAT assay, […] probe, […] activity lost; conditions: read-out: % activity lost at 50 μM
# PCAF [2] = biological target: T1, PCAF; assay: radioisotope […]Ac-CoA HAT assay, […] probe
# Chain of p300 (Q09472 2-2414): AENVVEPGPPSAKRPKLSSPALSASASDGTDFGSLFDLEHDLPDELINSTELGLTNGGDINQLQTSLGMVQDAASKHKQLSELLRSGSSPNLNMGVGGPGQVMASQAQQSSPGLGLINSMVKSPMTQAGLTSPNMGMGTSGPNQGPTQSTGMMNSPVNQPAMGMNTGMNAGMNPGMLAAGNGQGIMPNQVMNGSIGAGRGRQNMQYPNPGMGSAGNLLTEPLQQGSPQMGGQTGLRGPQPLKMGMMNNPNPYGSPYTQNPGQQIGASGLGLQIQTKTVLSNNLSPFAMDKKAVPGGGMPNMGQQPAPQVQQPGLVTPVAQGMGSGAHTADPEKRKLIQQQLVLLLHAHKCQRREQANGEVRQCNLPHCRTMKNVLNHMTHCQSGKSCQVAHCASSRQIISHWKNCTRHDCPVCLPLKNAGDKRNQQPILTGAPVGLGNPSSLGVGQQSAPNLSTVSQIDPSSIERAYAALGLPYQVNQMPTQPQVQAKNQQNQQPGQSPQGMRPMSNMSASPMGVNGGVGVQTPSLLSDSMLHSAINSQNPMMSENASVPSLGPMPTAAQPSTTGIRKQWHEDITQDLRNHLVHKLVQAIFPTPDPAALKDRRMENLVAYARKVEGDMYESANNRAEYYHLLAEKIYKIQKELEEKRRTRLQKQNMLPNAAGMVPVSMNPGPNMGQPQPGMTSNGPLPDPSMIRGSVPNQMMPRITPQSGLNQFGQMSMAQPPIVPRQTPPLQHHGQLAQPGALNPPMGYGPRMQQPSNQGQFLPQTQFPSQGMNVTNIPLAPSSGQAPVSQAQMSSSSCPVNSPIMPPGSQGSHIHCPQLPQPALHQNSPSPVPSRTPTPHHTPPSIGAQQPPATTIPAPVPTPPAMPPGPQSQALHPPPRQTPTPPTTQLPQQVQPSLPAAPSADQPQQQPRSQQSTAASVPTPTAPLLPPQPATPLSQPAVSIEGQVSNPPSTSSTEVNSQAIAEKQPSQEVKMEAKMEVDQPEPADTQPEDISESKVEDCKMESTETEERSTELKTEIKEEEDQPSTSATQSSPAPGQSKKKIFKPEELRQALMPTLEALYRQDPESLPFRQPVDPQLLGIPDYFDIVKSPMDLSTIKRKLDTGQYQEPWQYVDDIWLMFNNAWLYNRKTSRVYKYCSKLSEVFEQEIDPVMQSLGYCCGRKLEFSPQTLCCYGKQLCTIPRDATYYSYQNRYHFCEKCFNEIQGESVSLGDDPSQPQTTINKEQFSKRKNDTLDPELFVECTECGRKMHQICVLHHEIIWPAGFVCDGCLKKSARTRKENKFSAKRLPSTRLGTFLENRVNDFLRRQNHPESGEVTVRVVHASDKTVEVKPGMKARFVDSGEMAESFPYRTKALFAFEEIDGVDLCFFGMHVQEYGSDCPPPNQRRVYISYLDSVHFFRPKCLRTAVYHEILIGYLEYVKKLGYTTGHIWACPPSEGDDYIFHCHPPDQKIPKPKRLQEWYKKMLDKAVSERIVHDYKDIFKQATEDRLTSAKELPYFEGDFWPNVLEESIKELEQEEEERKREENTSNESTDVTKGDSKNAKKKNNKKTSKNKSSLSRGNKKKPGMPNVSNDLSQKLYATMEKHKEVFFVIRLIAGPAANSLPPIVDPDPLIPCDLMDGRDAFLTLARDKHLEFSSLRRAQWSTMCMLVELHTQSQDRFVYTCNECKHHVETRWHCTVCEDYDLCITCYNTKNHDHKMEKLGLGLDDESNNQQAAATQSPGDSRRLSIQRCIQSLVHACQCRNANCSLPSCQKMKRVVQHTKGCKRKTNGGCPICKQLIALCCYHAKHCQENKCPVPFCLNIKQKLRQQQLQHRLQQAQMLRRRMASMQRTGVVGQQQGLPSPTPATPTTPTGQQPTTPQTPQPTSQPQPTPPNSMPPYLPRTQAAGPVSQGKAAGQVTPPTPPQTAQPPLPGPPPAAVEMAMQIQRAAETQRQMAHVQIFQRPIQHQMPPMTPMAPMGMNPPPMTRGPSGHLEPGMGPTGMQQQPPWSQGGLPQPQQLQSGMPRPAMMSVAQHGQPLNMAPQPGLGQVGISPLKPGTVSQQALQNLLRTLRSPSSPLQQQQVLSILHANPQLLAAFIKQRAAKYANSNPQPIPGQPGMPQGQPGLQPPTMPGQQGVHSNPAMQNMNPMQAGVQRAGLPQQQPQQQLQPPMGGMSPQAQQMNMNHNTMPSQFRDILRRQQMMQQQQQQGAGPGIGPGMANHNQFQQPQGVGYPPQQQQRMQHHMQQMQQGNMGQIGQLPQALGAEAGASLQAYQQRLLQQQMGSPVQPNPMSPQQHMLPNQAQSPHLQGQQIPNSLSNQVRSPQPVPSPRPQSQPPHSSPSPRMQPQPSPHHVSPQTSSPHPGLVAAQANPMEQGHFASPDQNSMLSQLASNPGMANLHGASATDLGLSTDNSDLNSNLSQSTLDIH
# T1 sequence (Q92831 493-658): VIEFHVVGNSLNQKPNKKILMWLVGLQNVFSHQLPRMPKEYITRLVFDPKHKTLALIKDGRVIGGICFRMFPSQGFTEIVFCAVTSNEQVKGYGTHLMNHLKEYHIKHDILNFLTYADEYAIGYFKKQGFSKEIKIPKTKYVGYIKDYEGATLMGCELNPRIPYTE
# Chain of Tip60 (Q92993 whole entry): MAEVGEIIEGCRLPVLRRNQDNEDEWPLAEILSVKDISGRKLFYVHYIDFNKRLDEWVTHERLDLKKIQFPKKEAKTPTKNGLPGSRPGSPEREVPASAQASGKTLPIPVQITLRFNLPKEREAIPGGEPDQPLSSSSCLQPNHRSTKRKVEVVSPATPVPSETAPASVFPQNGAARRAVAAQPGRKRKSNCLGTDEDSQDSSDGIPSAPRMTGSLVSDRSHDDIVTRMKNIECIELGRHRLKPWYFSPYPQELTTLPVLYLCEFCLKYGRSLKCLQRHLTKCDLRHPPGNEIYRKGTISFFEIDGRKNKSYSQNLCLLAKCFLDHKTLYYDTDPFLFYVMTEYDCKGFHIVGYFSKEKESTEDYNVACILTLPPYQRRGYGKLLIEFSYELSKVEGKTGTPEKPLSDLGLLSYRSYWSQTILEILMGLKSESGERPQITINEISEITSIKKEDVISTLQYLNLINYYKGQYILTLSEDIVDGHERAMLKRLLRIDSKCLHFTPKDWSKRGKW
IC50 (PCAF [1]),IC50 (Tip60),Structure (SMILES),inhibition at 50 µM (p300),"radioisotope [14C]Ac-CoA HAT assay, 50 μM probe (PCAF [2])"
96 µM,26 µM,CC(=O)N[C@@H](CCCCNC(=O)CSCCNC(=O)CCNC(=O)[C@H](O)C(C)(C)COP(=O)(O)OP(=O)(O)OC[C@H]1O[C@@H](n2cnc3c(N)ncnc32)[C@H](O)[C@@H]1OP(=O)(O)O)C(N)=O [Lys-CoA],–,–
–,–,O=C1C=CC(=O)N1c1ccc2ccc3cccc4ccc1c2c34 [P28],> 90%,–
–,–,CCN(CC)c1ccc2c(C)c(-c3ccc(N4C(=O)C=CC4=O)cc3)c(=O)oc2c1 [CPM],> 90%,Several compounds (e.g. CPM and P28) also considerably inhibited the activity of PCAF.
